# Tested on: N. gonorrhoeae
# Assay: In vitro time-kill assay
# Format: cell-based, Neisseria gonorrhoeae
# Details: for mean time to reach bactericidal activity: ten isolates
# Text: The 2024 WHO N. gonorrhoeae reference strains were used for quality control. Only whole MIC doubling dilutions are reported. Clinical breakpoints or the epidemiological cutoff (ECOFF, to indicate azithromycin resistance) from EUCAST (v14.0, https://www.eucast.org/clinical_breakpoints) were used to classify isolates as antimicrobial susceptible or resistant. […] Two times the standard inoculum defined by CLSI was used to establish consistent growth in untreated control samples for some strains. In vitro time-kill assays were performed according to CLSI guidelines[65] using Columbia Broth (BD Difco) supplemented with 1% IsoVitaleX Enrichment (BD). Viable bacterial counts were generated by plating 10-fold serially diluted samples on GC agar plates containing 1% IsoVitaleX Enrichment (BD).
structure (smiles),measurement,setting,value
Cc1c(CN(C)C(=O)/C=C/c2cnc3c(c2)N[C@H](C)[C@H](O)C(=O)N3)oc2ccccc12 [Debio 1453],mean time to reach bactericidal activity,2× MIC,10 h
same,mean time to reach bactericidal activity,4× MIC,8.5 h
same,mean time to reach bactericidal activity,8× MIC,8 h
same,mean time to reach bactericidal activity,16× MIC,8 h
same,Log10CFU/ml (time kill),"6804, 2X MIC, 0 hr",6.11 Log10CFU/ml
same,Log10CFU/ml (time kill),"6804, 2X MIC, 1 hr",6.05 Log10CFU/ml
same,Log10CFU/ml (time kill),"6804, 2X MIC, 3 hr",5.70 Log10CFU/ml
same,Log10CFU/ml (time kill),"6804, 2X MIC, 6 hr",5.13 Log10CFU/ml
same,Log10CFU/ml (time kill),"6804, 2X MIC, 10 hr",4.59 Log10CFU/ml
same,Log10CFU/ml (time kill),"6804, 2X MIC, 24 hr",1.95 Log10CFU/ml
same,Log10CFU/ml (time kill),"6804, 4X MIC, 0 hr",6.04 Log10CFU/ml
same,Log10CFU/ml (time kill),"6804, 4X MIC, 1 hr",6.04 Log10CFU/ml
same,Log10CFU/ml (time kill),"6804, 4X MIC, 3 hr",5.43 Log10CFU/ml
same,Log10CFU/ml (time kill),"6804, 4X MIC, 6 hr",4.53 Log10CFU/ml
same,Log10CFU/ml (time kill),"6804, 4X MIC, 10 hr",3.72 Log10CFU/ml
same,Log10CFU/ml (time kill),"6804, 4X MIC, 24 hr",1.95 Log10CFU/ml
same,Log10CFU/ml (time kill),"6804, 8X MIC, 0 hr",6.21 Log10CFU/ml
same,Log10CFU/ml (time kill),"6804, 8X MIC, 1 hr",6.03 Log10CFU/ml
same,Log10CFU/ml (time kill),"6804, 8X MIC, 3 hr",5.13 Log10CFU/ml
same,Log10CFU/ml (time kill),"6804, 8X MIC, 6 hr",4.30 Log10CFU/ml
same,Log10CFU/ml (time kill),"6804, 8X MIC, 10 hr",3.41 Log10CFU/ml
same,Log10CFU/ml (time kill),"6804, 8X MIC, 24 hr",1.95 Log10CFU/ml
same,Log10CFU/ml (time kill),"6804, 16X MIC, 0 hr",6.00 Log10CFU/ml
same,Log10CFU/ml (time kill),"6804, 16X MIC, 1 hr",6.07 Log10CFU/ml
same,Log10CFU/ml (time kill),"6804, 16X MIC, 3 hr",5.20 Log10CFU/ml
same,Log10CFU/ml (time kill),"6804, 16X MIC, 6 hr",4.67 Log10CFU/ml
same,Log10CFU/ml (time kill),"6804, 16X MIC, 10 hr",3.70 Log10CFU/ml
same,Log10CFU/ml (time kill),"6804, 16X MIC, 24 hr",1.95 Log10CFU/ml
same,Log10CFU/ml (time kill),"AR Bank0175, 2X MIC, 0 hr",6.11 Log10CFU/ml
same,Log10CFU/ml (time kill),"AR Bank0175, 2X MIC, 1 hr",5.92 Log10CFU/ml
same,Log10CFU/ml (time kill),"AR Bank0175, 2X MIC, 3 hr",5.61 Log10CFU/ml
same,Log10CFU/ml (time kill),"AR Bank0175, 2X MIC, 6 hr",4.46 Log10CFU/ml
same,Log10CFU/ml (time kill),"AR Bank0175, 2X MIC, 10 hr",3.38 Log10CFU/ml
same,Log10CFU/ml (time kill),"AR Bank0175, 2X MIC, 24 hr",1.95 Log10CFU/ml
same,Log10CFU/ml (time kill),"AR Bank0175, 4X MIC, 0 hr",6.15 Log10CFU/ml
same,Log10CFU/ml (time kill),"AR Bank0175, 4X MIC, 1 hr",5.59 Log10CFU/ml
same,Log10CFU/ml (time kill),"AR Bank0175, 4X MIC, 3 hr",5.22 Log10CFU/ml
same,Log10CFU/ml (time kill),"AR Bank0175, 4X MIC, 6 hr",4.45 Log10CFU/ml
same,Log10CFU/ml (time kill),"AR Bank0175, 4X MIC, 10 hr",3.28 Log10CFU/ml
same,Log10CFU/ml (time kill),"AR Bank0175, 4X MIC, 24 hr",1.95 Log10CFU/ml
same,Log10CFU/ml (time kill),"AR Bank0175, 8X MIC, 0 hr",5.85 Log10CFU/ml
same,Log10CFU/ml (time kill),"AR Bank0175, 8X MIC, 1 hr",5.40 Log10CFU/ml
same,Log10CFU/ml (time kill),"AR Bank0175, 8X MIC, 3 hr",5.08 Log10CFU/ml
same,Log10CFU/ml (time kill),"AR Bank0175, 8X MIC, 6 hr",3.85 Log10CFU/ml
same,Log10CFU/ml (time kill),"AR Bank0175, 8X MIC, 10 hr",2.95 Log10CFU/ml
same,Log10CFU/ml (time kill),"AR Bank0175, 8X MIC, 24 hr",1.95 Log10CFU/ml
same,Log10CFU/ml (time kill),"AR Bank0175, 16X MIC, 0 hr",6.08 Log10CFU/ml
same,Log10CFU/ml (time kill),"AR Bank0175, 16X MIC, 1 hr",5.41 Log10CFU/ml
same,Log10CFU/ml (time kill),"AR Bank0175, 16X MIC, 3 hr",4.92 Log10CFU/ml
same,Log10CFU/ml (time kill),"AR Bank0175, 16X MIC, 6 hr",3.81 Log10CFU/ml
same,Log10CFU/ml (time kill),"AR Bank0175, 16X MIC, 10 hr",3.23 Log10CFU/ml
same,Log10CFU/ml (time kill),"AR Bank0175, 16X MIC, 24 hr",1.95 Log10CFU/ml
same,Log10CFU/ml (time kill),"AR Bank0179, 2X MIC, 0 hr",5.66 Log10CFU/ml
same,Log10CFU/ml (time kill),"AR Bank0179, 2X MIC, 1 hr",5.63 Log10CFU/ml
same,Log10CFU/ml (time kill),"AR Bank0179, 2X MIC, 3 hr",5.09 Log10CFU/ml
same,Log10CFU/ml (time kill),"AR Bank0179, 2X MIC, 6 hr",4.63 Log10CFU/ml
same,Log10CFU/ml (time kill),"AR Bank0179, 2X MIC, 10 hr",2.00 Log10CFU/ml
same,Log10CFU/ml (time kill),"AR Bank0179, 2X MIC, 24 hr",1.95 Log10CFU/ml
same,Log10CFU/ml (time kill),"AR Bank0179, 4X MIC, 0 hr",5.46 Log10CFU/ml
same,Log10CFU/ml (time kill),"AR Bank0179, 4X MIC, 1 hr",5.53 Log10CFU/ml
same,Log10CFU/ml (time kill),"AR Bank0179, 4X MIC, 3 hr",4.84 Log10CFU/ml
same,Log10CFU/ml (time kill),"AR Bank0179, 4X MIC, 6 hr",3.98 Log10CFU/ml
same,Log10CFU/ml (time kill),"AR Bank0179, 4X MIC, 10 hr",1.95 Log10CFU/ml
same,Log10CFU/ml (time kill),"AR Bank0179, 4X MIC, 24 hr",1.95 Log10CFU/ml
same,Log10CFU/ml (time kill),"AR Bank0179, 8X MIC, 0 hr",5.74 Log10CFU/ml
same,Log10CFU/ml (time kill),"AR Bank0179, 8X MIC, 1 hr",5.30 Log10CFU/ml
same,Log10CFU/ml (time kill),"AR Bank0179, 8X MIC, 3 hr",4.73 Log10CFU/ml
same,Log10CFU/ml (time kill),"AR Bank0179, 8X MIC, 6 hr",3.88 Log10CFU/ml
same,Log10CFU/ml (time kill),"AR Bank0179, 8X MIC, 10 hr",1.95 Log10CFU/ml
same,Log10CFU/ml (time kill),"AR Bank0179, 8X MIC, 24 hr",1.95 Log10CFU/ml
same,Log10CFU/ml (time kill),"AR Bank0179, 16X MIC, 0 hr",5.69 Log10CFU/ml
same,Log10CFU/ml (time kill),"AR Bank0179, 16X MIC, 1 hr",5.23 Log10CFU/ml
same,Log10CFU/ml (time kill),"AR Bank0179, 16X MIC, 3 hr",4.75 Log10CFU/ml
same,Log10CFU/ml (time kill),"AR Bank0179, 16X MIC, 6 hr",3.67 Log10CFU/ml
same,Log10CFU/ml (time kill),"AR Bank0179, 16X MIC, 10 hr",1.95 Log10CFU/ml
same,Log10CFU/ml (time kill),"AR Bank0179, 16X MIC, 24 hr",1.95 Log10CFU/ml
same,Log10CFU/ml (time kill),"ATCC 49226, 2X MIC, 0 hr",6.10 Log10CFU/ml
same,Log10CFU/ml (time kill),"ATCC 49226, 2X MIC, 1 hr",5.92 Log10CFU/ml
same,Log10CFU/ml (time kill),"ATCC 49226, 2X MIC, 3 hr",5.64 Log10CFU/ml
same,Log10CFU/ml (time kill),"ATCC 49226, 2X MIC, 6 hr",4.51 Log10CFU/ml
same,Log10CFU/ml (time kill),"ATCC 49226, 2X MIC, 10 hr",2.60 Log10CFU/ml
same,Log10CFU/ml (time kill),"ATCC 49226, 2X MIC, 24 hr",1.95 Log10CFU/ml
same,Log10CFU/ml (time kill),"ATCC 49226, 4X MIC, 0 hr",6.07 Log10CFU/ml
same,Log10CFU/ml (time kill),"WHO V, 2X MIC, 0 hr",5.66 Log10CFU/ml
same,Log10CFU/ml (time kill),"WHO V, 2X MIC, 1 hr",5.58 Log10CFU/ml
same,Log10CFU/ml (time kill),"WHO V, 2X MIC, 3 hr",4.90 Log10CFU/ml
same,Log10CFU/ml (time kill),"WHO V, 2X MIC, 6 hr",4.14 Log10CFU/ml
same,Log10CFU/ml (time kill),"WHO V, 2X MIC, 10 hr",3.53 Log10CFU/ml
same,Log10CFU/ml (time kill),"WHO V, 2X MIC, 24 hr",1.95 Log10CFU/ml
same,Log10CFU/ml (time kill),"WHO V, 4X MIC, 0 hr",5.59 Log10CFU/ml
same,Log10CFU/ml (time kill),"WHO V, 4X MIC, 1 hr",5.34 Log10CFU/ml
same,Log10CFU/ml (time kill),"WHO V, 4X MIC, 3 hr",4.37 Log10CFU/ml
same,Log10CFU/ml (time kill),"WHO V, 4X MIC, 6 hr",4.03 Log10CFU/ml
same,Log10CFU/ml (time kill),"WHO V, 4X MIC, 10 hr",2.00 Log10CFU/ml
same,Log10CFU/ml (time kill),"WHO V, 4X MIC, 24 hr",1.95 Log10CFU/ml
same,Log10CFU/ml (time kill),"WHO V, 8X MIC, 0 hr",5.60 Log10CFU/ml
same,Log10CFU/ml (time kill),"WHO V, 8X MIC, 1 hr",4.90 Log10CFU/ml
same,Log10CFU/ml (time kill),"WHO V, 8X MIC, 3 hr",4.34 Log10CFU/ml
same,Log10CFU/ml (time kill),"WHO V, 8X MIC, 6 hr",4.03 Log10CFU/ml
same,Log10CFU/ml (time kill),"WHO V, 8X MIC, 10 hr",1.95 Log10CFU/ml
same,Log10CFU/ml (time kill),"WHO V, 8X MIC, 24 hr",1.95 Log10CFU/ml
same,Log10CFU/ml (time kill),"WHO V, 16X MIC, 0 hr",5.81 Log10CFU/ml
same,Log10CFU/ml (time kill),"WHO V, 16X MIC, 1 hr",5.00 Log10CFU/ml
same,Log10CFU/ml (time kill),"WHO V, 16X MIC, 3 hr",4.27 Log10CFU/ml
same,reduction in viable CFU counts,"within 24 h, all concentrations tested, as low as 2× MIC, 10 isolates",≥ 3 log10

# Source: PMC12446476 (Nature Communications, 2025)
